What was measured:
Assay type in all cases: in vivo
[1] = test system: redroot pigweed (Amaranthus retroflexus, AMARE); assay: Pre-emerge test, greenhouse herbicide activity screening; settings: rated 14 days after application, 0 = no damage, 100 = complete death
How it was run: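 Compounds in acetone were track-sprayed at 15-1000 g ai/ha (187 l/ha) on sandy loam pots: pre-emerge one day after seeding, post-emerge at 2-3 leaf stage with 0.25% v/v non-ionic surfactant. Phytotoxicity was rated 14 days later on a 0 (no damage) to 100 (complete death) scale.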

[2] = test system: barnyardgrass (Echinochloa crus-galli, ECHCG); assay: as above; settings: rated 14 days after application, 0 = no damage, 100 = complete death
How it was run: (§1)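 Fourteen days after spraying, crop and weed injury was graded visually from 0, no effect, to 100, every plant dead. Test substances were dissolved in acetone and applied at 15–1000 g ai/ha with a flat-fan nozzle. Application was either pre-emergence, one day after sowing, or post-emergence at the 2–3 leaf stage.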

[3] = test system: common ragweed (Ambrosia artemisizfolia L., AMBEL); assay: as above; settings: rated 14 days after application, 0 = no damage, 100 = complete death
How it was run: as §1

[4] = test system: green foxtail (Setaria viridis, SETVI); assay: as above; settings: rated 14 days after application, 0 = no damage, 100 = complete death
How it was run: as §1

[5] = test system: ivyleaf morningglory (Ipomoea hederacea, IPOHE); assay: as above; settings: rated 14 days after application, 0 = no damage, 100 = complete death
How it was run: as §1

[6] = test system: johnsongrass (Sorghum halepense, SORHA); assay: as above; settings: rated 14 days after application, 0 = no damage, 100 = complete death
How it was run: as §1

[7] = test system: lambsquarters (Chenopodium album, CHEAL); assay: as above; settings: rated 14 days after application, 0 = no damage, 100 = complete death
How it was run: as §1

[8] = test system: large crabgrass (Digitaria sanguinalis, DIGSA); assay: as above; settings: rated 14 days after application, 0 = no damage, 100 = complete death
How it was run: as §1

[9] = test system: sicklepod (Cassia obtusifolia, CASOB); assay: as above; settings: rated 14 days after application, 0 = no damage, 100 = complete death
How it was run: as §1

[10] = test system: velvetleaf (Abutilon theophrasti, ABUTH); assay: as above; settings: rated 14 days after application, 0 = no damage, 100 = complete death
How it was run: as §1

[11] = test system: field corn (Zea mays L., var. Dekalb 535, CORN); assay: Pre-emerge test, crop safety; settings: rated 14 days after application, 0 = no damage, 100 = complete death
How it was run: (§2)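 Visual ratings on a 0-100 scale (0 no damage, 100 all plants dead) were taken at 14 days after treatment. Rates of 15-1000 g ai/ha in acetone, 187 l/ha, were sprayed onto soil one day after planting (pre-emerge) or onto 2-3 leaf plants with 0.25% v/v surfactant (post-emerge).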

[12] = test system: upland rice (Oryza sp., var. Tebonnet, RICE); assay: Pre-emerge test, crop safety; settings: rated 14 days after application, 0 = no damage, 100 = complete death
How it was run: as §2

[13] = test system: barnyardgrass (Echinochloa crus-galli, ECHCG); assay: Post-emerge test, greenhouse herbicide activity screening; settings: post-emerge, 14 days after application, rating scale 0-100
How it was run: (§3)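 Compounds in acetone were track-sprayed at 187 l/ha, 15–1000 g ai/ha, onto sandy loam pots. Pre-emerge seeds were sown one day before spraying, with surface watering afterwards. Post-emerge plants were at the 2–3 leaf stage and sprayed with 0.25% v/v non-ionic surfactant. Injury was rated 0–100 at 14 days.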

[14] = test system: common ragweed (Ambrosia artemisizfolia L., AMBEL); assay: as above; settings: post-emerge, 14 days after application, rating scale 0-100
How it was run: as §3

[15] = test system: green foxtail (Setaria viridis, SETVI); assay: as above; settings: post-emerge, 14 days after application, rating scale 0-100
How it was run: as §3

[16] = test system: ivyleaf morningglory (Ipomoea hederacea, IPOHE); assay: as above; settings: post-emerge, 14 days after application, rating scale 0-100
How it was run: as §3

[17] = test system: johnsongrass (Sorghum halepense, SORHA); assay: as above; settings: post-emerge, 14 days after application, rating scale 0-100
How it was run: as §3

[18] = test system: lambsquarters (Chenopodium album, CHEAL); assay: as above; settings: post-emerge, 14 days after application, rating scale 0-100
How it was run: as §3

[19] = test system: large crabgrass (Digitaria sanguinalis, DIGSA); assay: as above; settings: post-emerge, 14 days after application, rating scale 0-100
How it was run: as §3

[20] = test system: redroot pigweed (Amaranthus retroflexus, AMARE); assay: as above; settings: post-emerge, 14 days after application, rating scale 0-100
How it was run: as §3

[21] = test system: sicklepod (Cassia obtusifolia, CASOB); assay: as above; settings: post-emerge, 14 days after application, rating scale 0-100
How it was run: as §3

[22] = test system: velvetleaf (Abutilon theophrasti, ABUTH); assay: as above; settings: post-emerge, 14 days after application, rating scale 0-100
How it was run: as §3

[23] = test system: field corn (Zea mays L., var. Dekalb 535, CORN); assay: Post-emerge test, crop safety; settings: post-emerge, 14 days after application, rating scale 0-100
How it was run: as §1

[24] = test system: upland rice (Oryza sp., var. Tebonnet, RICE); assay: Post-emerge test, crop safety; settings: post-emerge, 14 days after application, rating scale 0-100
How it was run: as §1

COc1c(Cl)cc(F)c(-n2c(=O)cc(C(F)(F)F)n(C)c2=O)c1NC(=O)c1ccc(F)c(F)c1 [2-48]
Pre-emerge Herbicidal Activity, phytotoxicity rating (0-100), AMARE ([1]; 63 g ai/ha): 100
Pre-emerge Herbicidal Activity, phytotoxicity rating (0-100), AMARE ([1]; 250 g ai/ha): 100
Pre-emerge Herbicidal Activity, phytotoxicity rating (0-100), ECHCG ([2]; 63 g ai/ha): 85
Pre-emerge Herbicidal Activity, phytotoxicity rating (0-100), ECHCG ([2]; 250 g ai/ha): 100
Pre-emerge Herbicidal Activity, phytotoxicity rating (0-100), AMBEL ([3]; 63 g ai/ha): 100
Pre-emerge Herbicidal Activity, phytotoxicity rating (0-100), AMBEL ([3]; 250 g ai/ha): 100
Pre-emerge Herbicidal Activity, phytotoxicity rating (0-100), SETVI ([4]; 63 g ai/ha): 100
Pre-emerge Herbicidal Activity, phytotoxicity rating (0-100), SETVI ([4]; 250 g ai/ha): 100
Pre-emerge Herbicidal Activity, phytotoxicity rating (0-100), IPOHE ([5]; 63 g ai/ha): 100
Pre-emerge Herbicidal Activity, phytotoxicity rating (0-100), IPOHE ([5]; 250 g ai/ha): 100
Pre-emerge Herbicidal Activity, phytotoxicity rating (0-100), SORHA ([6]; 63 g ai/ha): 95
Pre-emerge Herbicidal Activity, phytotoxicity rating (0-100), SORHA ([6]; 250 g ai/ha): 95
Pre-emerge Herbicidal Activity, phytotoxicity rating (0-100), CHEAL ([7]; 63 g ai/ha): 100
Pre-emerge Herbicidal Activity, phytotoxicity rating (0-100), CHEAL ([7]; 250 g ai/ha): 100
Pre-emerge Herbicidal Activity, phytotoxicity rating (0-100), DIGSA ([8]; 63 g ai/ha): 95
Pre-emerge Herbicidal Activity, phytotoxicity rating (0-100), DIGSA ([8]; 250 g ai/ha): 100
Pre-emerge Herbicidal Activity, phytotoxicity rating (0-100), CASOB ([9]; 63 g ai/ha): 100
Pre-emerge Herbicidal Activity, phytotoxicity rating (0-100), CASOB ([9]; 250 g ai/ha): 100
Pre-emerge Herbicidal Activity, phytotoxicity rating (0-100), ABUTH ([10]; 63 g ai/ha): 100
Pre-emerge Herbicidal Activity, phytotoxicity rating (0-100), ABUTH ([10]; 250 g ai/ha): 100
Pre-emerge phytotoxicity rating (0-100), crop damage, CORN ([11]; 63 g ai/ha): 90
Pre-emerge phytotoxicity rating (0-100), crop damage, CORN ([11]; 250 g ai/ha): 99
Pre-emerge phytotoxicity rating (0-100), crop damage, RICE ([12]; 63 g ai/ha): 90
Pre-emerge phytotoxicity rating (0-100), crop damage, RICE ([12]; 250 g ai/ha): 99
phytotoxicity rating ECHCG ([13]; 63 g ai/ha): 0
phytotoxicity rating ECHCG ([13]; 250 g ai/ha): 80
phytotoxicity rating AMBEL ([14]; 63 g ai/ha): 85
phytotoxicity rating AMBEL ([14]; 250 g ai/ha): 100
phytotoxicity rating SETVI ([15]; 63 g ai/ha): 20
phytotoxicity rating SETVI ([15]; 250 g ai/ha): 70
phytotoxicity rating IPOHE ([16]; 63 g ai/ha): 100
phytotoxicity rating IPOHE ([16]; 250 g ai/ha): 100
phytotoxicity rating SORHA ([17]; 63 g ai/ha): 30
phytotoxicity rating SORHA ([17]; 250 g ai/ha): 60
phytotoxicity rating CHEAL ([18]; 63 g ai/ha): 95
phytotoxicity rating CHEAL ([18]; 250 g ai/ha): 100
phytotoxicity rating DIGSA ([19]; 63 g ai/ha): 0
phytotoxicity rating DIGSA ([19]; 250 g ai/ha): 20
phytotoxicity rating AMARE ([20]; 63 g ai/ha): 95
phytotoxicity rating AMARE ([20]; 250 g ai/ha): 100
phytotoxicity rating CASOB ([21]; 63 g ai/ha): 50
phytotoxicity rating CASOB ([21]; 250 g ai/ha): 100
phytotoxicity rating ABUTH ([22]; 63 g ai/ha): 100
phytotoxicity rating ABUTH ([22]; 250 g ai/ha): 100
phytotoxicity rating CORN ([23]; 63 g ai/ha): 50
phytotoxicity rating CORN ([23]; 250 g ai/ha): 70
phytotoxicity rating RICE ([24]; 63 g ai/ha): 80
phytotoxicity rating RICE ([24]; 250 g ai/ha): 86

COc1c(Cl)cc(F)c(-n2c(=O)cc(C(F)(F)F)n(C)c2=O)c1NC(=O)c1cccc(Cl)c1 [2-54]
Pre-emerge Herbicidal Activity, phytotoxicity rating (0-100), AMARE ([1]; 63 g ai/ha): 100
Pre-emerge Herbicidal Activity, phytotoxicity rating (0-100), AMARE ([1]; 250 g ai/ha): 100
Pre-emerge Herbicidal Activity, phytotoxicity rating (0-100), ECHCG ([2]; 63 g ai/ha): 90
Pre-emerge Herbicidal Activity, phytotoxicity rating (0-100), ECHCG ([2]; 250 g ai/ha): 100
Pre-emerge Herbicidal Activity, phytotoxicity rating (0-100), AMBEL ([3]; 63 g ai/ha): 100
Pre-emerge Herbicidal Activity, phytotoxicity rating (0-100), AMBEL ([3]; 250 g ai/ha): 100
Pre-emerge Herbicidal Activity, phytotoxicity rating (0-100), SETVI ([4]; 63 g ai/ha): 100
Pre-emerge Herbicidal Activity, phytotoxicity rating (0-100), SETVI ([4]; 250 g ai/ha): 100
Pre-emerge Herbicidal Activity, phytotoxicity rating (0-100), IPOHE ([5]; 63 g ai/ha): 85
Pre-emerge Herbicidal Activity, phytotoxicity rating (0-100), IPOHE ([5]; 250 g ai/ha): 100
Pre-emerge Herbicidal Activity, phytotoxicity rating (0-100), SORHA ([6]; 63 g ai/ha): 90
Pre-emerge Herbicidal Activity, phytotoxicity rating (0-100), SORHA ([6]; 250 g ai/ha): 100
Pre-emerge Herbicidal Activity, phytotoxicity rating (0-100), CHEAL ([7]; 63 g ai/ha): 100
Pre-emerge Herbicidal Activity, phytotoxicity rating (0-100), CHEAL ([7]; 250 g ai/ha): 100
Pre-emerge Herbicidal Activity, phytotoxicity rating (0-100), DIGSA ([8]; 63 g ai/ha): 100
Pre-emerge Herbicidal Activity, phytotoxicity rating (0-100), DIGSA ([8]; 250 g ai/ha): 100
Pre-emerge Herbicidal Activity, phytotoxicity rating (0-100), CASOB ([9]; 63 g ai/ha): 100
Pre-emerge Herbicidal Activity, phytotoxicity rating (0-100), CASOB ([9]; 250 g ai/ha): 100
Pre-emerge Herbicidal Activity, phytotoxicity rating (0-100), ABUTH ([10]; 63 g ai/ha): 100
Pre-emerge Herbicidal Activity, phytotoxicity rating (0-100), ABUTH ([10]; 250 g ai/ha): 100
Pre-emerge phytotoxicity rating (0-100), crop damage, CORN ([11]; 63 g ai/ha): 90
Pre-emerge phytotoxicity rating (0-100), crop damage, CORN ([11]; 250 g ai/ha): 98
Pre-emerge phytotoxicity rating (0-100), crop damage, RICE ([12]; 63 g ai/ha): 70
Pre-emerge phytotoxicity rating (0-100), crop damage, RICE ([12]; 250 g ai/ha): 90
phytotoxicity rating ECHCG ([13]; 63 g ai/ha): 20
phytotoxicity rating ECHCG ([13]; 250 g ai/ha): 90
phytotoxicity rating AMBEL ([14]; 63 g ai/ha): 90
phytotoxicity rating AMBEL ([14]; 250 g ai/ha): 100
phytotoxicity rating SETVI ([15]; 63 g ai/ha): 10
phytotoxicity rating SETVI ([15]; 250 g ai/ha): 50
phytotoxicity rating IPOHE ([16]; 63 g ai/ha): 100
phytotoxicity rating IPOHE ([16]; 250 g ai/ha): 100
phytotoxicity rating SORHA ([17]; 63 g ai/ha): 50
phytotoxicity rating SORHA ([17]; 250 g ai/ha): 80
phytotoxicity rating CHEAL ([18]; 63 g ai/ha): 100
phytotoxicity rating CHEAL ([18]; 250 g ai/ha): 100
phytotoxicity rating DIGSA ([19]; 63 g ai/ha): 10
phytotoxicity rating DIGSA ([19]; 250 g ai/ha): 20
phytotoxicity rating AMARE ([20]; 63 g ai/ha): 100
phytotoxicity rating AMARE ([20]; 250 g ai/ha): 100
phytotoxicity rating CASOB ([21]; 63 g ai/ha): 90
phytotoxicity rating CASOB ([21]; 250 g ai/ha): 100
phytotoxicity rating ABUTH ([22]; 63 g ai/ha): 100
phytotoxicity rating ABUTH ([22]; 250 g ai/ha): 100
phytotoxicity rating CORN ([23]; 63 g ai/ha): 80
phytotoxicity rating CORN ([23]; 250 g ai/ha): 80
phytotoxicity rating RICE ([24]; 63 g ai/ha): 90
phytotoxicity rating RICE ([24]; 250 g ai/ha): 95
